This experiment concerns the target T1, SSTR4 (Homo sapiens, UniProt P31391).
T1 construct: host or cells: CHO-K1
The experiment in a line: Inhibition of forskolin stimulated cAMP in CHO-K1 cells overexpressing SSTR4. The format is cell-based. As to conditions: read-out: SSTR4 Activity pEC50 (converted). As for the experimental part: Inhibition of Forskolin Stimulated cAMP in Cells Overexpressing SSTR4
This cell-based assay measures the ability of compounds to inhibit forskolin stimulated cAMP in CHO-K1 cells overexpressing SSTR4. CHO-K1 cells overexpressing SSTR4 (CHO-SSTR4) are purchased from DiscoveRx (product code 95-0059C2). The CHO-SSTR4 cells are maintained in F12K media with 10% Fetal Bovine Serum (Hyclone), 1% Pen/Strep (Life Technologies), and 800 μg/mL G418 (Life Technologies). To perform the assay, 3000 cells are plated per well in white 384-well plate (Corning 3570) in 50 μL complete media and the cells are allowed to attach for 16 hours in a 37° C., 5% CO2 incubator. The next day, the culture media is removed from the cells and the cells are washed (added then removed) with Krebs Ringer Buffer (ZenBio, KRB-1000 mL). Test compounds are suspended in DMSO and diluted in stimulation buffer: Krebs Ringer Buffer plus 0.5% BSA (Roche), 300 μM IBMX (Sigma), and 350 nM forskolin (Sigma). The cells are incubated in 10 μL compound/stimulation buffer for 30 minutes at room temperature. Cellular cAMP levels are detected with a HTRF LANCE Ultra cAMP kit (Perkin Elmer, catalog number TRF0264).
The assay is performed in accordance with the manufacturer's instructions. Five μL of diluted Eu-W8044 labeled streptavidin (dilution: 1:50 in cAMP Detection Buffer) is added to each well. Then 5 μL of diluted biotin cAMP (dilution: 1:150 in cAMP Detection Buffer) is added to each well. The plates are covered and allowed to incubate for 60 minutes at room temperature on a shaker. HTRF (665 nm/615 nm) is read on a Perkin Elmer ENVISION plate reader. The pEC50 values are generated using Activity Base for Screening Data Management.
T1 sequence (P31391 whole entry): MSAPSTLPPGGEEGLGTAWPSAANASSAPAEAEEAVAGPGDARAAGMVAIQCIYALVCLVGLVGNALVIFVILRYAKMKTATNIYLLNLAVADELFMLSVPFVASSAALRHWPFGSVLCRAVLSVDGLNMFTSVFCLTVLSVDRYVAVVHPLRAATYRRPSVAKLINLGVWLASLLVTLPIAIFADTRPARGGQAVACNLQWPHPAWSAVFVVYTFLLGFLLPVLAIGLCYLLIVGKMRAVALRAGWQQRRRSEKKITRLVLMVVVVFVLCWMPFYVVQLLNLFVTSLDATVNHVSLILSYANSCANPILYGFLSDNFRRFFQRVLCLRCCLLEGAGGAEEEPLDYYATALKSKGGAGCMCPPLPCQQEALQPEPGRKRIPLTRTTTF
Take `CC(C)(COc1ncccc1C(F)(F)F)NC(=O)C[C@H]1CCCN1CCF` [Example 58, (R)-2-(1-(2-fluoroethyl)pyrrolidin-2-yl)-N-(2-methyl-1-((3-(trifluoromethyl)pyridin-2-yl)oxy)propan-2-yl)acetamide]: the EC50 is 0.0398 µM.
As to `CC(C)(COc1ncccc1C(F)(F)F)NC(=O)C[C@H]1CCCN1C1CC1` [Example 59, (R)-2-(1-cyclopropylpyrrolidin-2-yl)-N-(2-methyl-1-((3-(trifluoromethyl)pyridin-2-yl)oxy)propan-2-yl)acetamide], the EC50 is 0.0158 µM.
With `C[C@H](NC(=O)CC1CCCCN1C)c1ccc(F)cc1` (stereo partly drawn) [Example 61, N-((S)-1-(4-fluorophenyl)ethyl)-2-(1-methylpiperidin-2-yl)acetamide] the figure was 0.158 µM; with `CCN1CCCC1CC(=O)NC1(COc2ncccc2C)CCC1` (centres unmarked) [Example 64, 2-(1-ethylpyrrolidin-2-yl)-N-(1-(((3-methylpyridin-2-yl)oxy)methyl)cyclobutyl)acetamide], 0.1 µM.
In the case of `CCN1CCCC1CC(=O)NC1(COc2ncccc2C)CCCC1` (centres unmarked) [Example 65, 2-(1-ethylpyrrolidin-2-yl)-N-(1-(((3-methylpyridin-2-yl)oxy)methyl)cyclopentyl)acetamide] it was 0.251 µM; in that of `Cc1cccnc1OCC(C)(C)NC(=O)CC1CCC(C)N1C` (centres unmarked) [Example 68, 2-(1,5-dimethylpyrrolidin-2-yl)-N-(2-methyl-1-((3-methylpyridin-2-yl)oxy)propan-2-yl)acetamide], 0.0251 µM; in that of `Cc1cccnc1OCC(C)(C)NC(=O)CC1CCCCN1C` (centres unmarked) [Example 69, N-(2-methyl-1-((3-methylpyridin-2-yl)oxy)propan-2-yl)-2-(1-methylpiperidin-2-yl)acetamide], 0.0251 µM.
With `CN1CCC[C@H]1CC(=O)NC(C)(C)COc1ncccc1OC(F)(F)F` [Example 72, (S)-N-(2-methyl-1-((3-(trifluoromethoxy)pyridin-2-yl)oxy)propan-2-yl)-2-(1-methylpyrrolidin-2-yl)acetamide] the figure was 0.02 µM; with `CN1CCC[C@H]1CC(=O)NC(C)(C)COc1ncccc1C1CC1` [Example 73, (S)-N-(1-((3-cyclopropylpyridin-2-yl)oxy)-2-methylpropan-2-yl)-2-(1-methylpyrrolidin-2-yl)acetamide], 0.0398 µM.
For the molecule `COc1ccccc1CC1(NC(=O)CC2CCCCN2C)CC1` (centres unmarked) [Example 74, N-(1-(2-methoxybenzyl)cyclopropyl)-2-(1-methylpiperidin-2-yl)acetamide], the EC50 is 0.0316 µM.
Take `COc1ncccc1CC1(NC(=O)CC2CCCCN2C)CC1` (centres unmarked) [Example 79, N-(1-((2-methoxypyridin-3-yl)methyl)cyclopropyl)-2-(1-methylpiperidin-2-yl)acetamide]: the EC50 was 0.398 µM.
In the case of `Cc1cccc(CC2(NC(=O)C[C@@H]3CCCN3C)CC2)c1` [Example 81, (S)-N-(1-(3-methylbenzyl)cyclopropyl)-2-(1-methylpyrrolidin-2-yl)acetamide] it was 0.398 µM; in that of `CN1CCC[C@H]1CC(=O)NC(C)(C)c1cccc(F)c1F` [Example 82, (S)-N-(2-(2,3-difluorophenyl)propan-2-yl)-2-(1-methylpyrrolidin-2-yl)acetamide], 0.316 µM.
In the case of `CN1CCC[C@H]1CC(=O)NC(C)(C)c1cccc(Cl)c1F` [Example 83, (S)-N-(2-(3-chloro-2-fluorophenyl)propan-2-yl)-2-(1-methylpyrrolidin-2-yl)acetamide] it was 0.251 µM; in that of `CN1CCC[C@@H]1CC(=O)NC(C)(C)COc1ncccc1C(F)F` [Example 84, (R)-N-(1-((3-(difluoromethyl)pyridin-2-yl)oxy)-2-methylpropan-2-yl)-2-(1-methylpyrrolidin-2-yl)acetamide], 0.1 µM.
In the case of `CN1CCC[C@H]1CC(=O)NC(C)(C)COc1ncccc1C(F)F` [Example 85] it was 0.2 µM; in that of `Cc1cccc(C(C)(C)NC(=O)C[C@@H]2CCCN2C)c1F` [Example 86, (S)-N-(2-(2-fluoro-3-methylphenyl)propan-2-yl)-2-(1-methylpyrrolidin-2-yl)acetamide], 0.251 µM; in that of `Cc1cccc(C(C)(C)NC(=O)C[C@H]2CCCN2C)c1F` [Example 87, (R)-N-(2-(2-fluoro-3-methylphenyl)propan-2-yl)-2-(1-methylpyrrolidin-2-yl)acetamide], 0.316 µM.
Take `Cc1c(F)cccc1C(C)(C)NC(=O)C[C@@H]1CCCN1C` [Example 89, (S)-N-(2-(3-fluoro-2-methylphenyl)propan-2-yl)-2-(1-methylpyrrolidin-2-yl)acetamide]: the EC50 is 0.126 µM.
In the case of `Cc1c(F)cccc1C(C)(C)NC(=O)C[C@H]1CCCN1C` [Example 90, (R)-N-(2-(3-fluoro-2-methylphenyl)propan-2-yl)-2-(1-methylpyrrolidin-2-yl)acetamide] it was 0.0631 µM.
With `CN1CCC[C@H]1CC(=O)NC(C)(C)c1cccc(F)c1Cl` [Example 93, (S)-N-(2-(2-chloro-3-fluorophenyl)propan-2-yl)-2-(1-methylpyrrolidin-2-yl)acetamide] the figure was 0.0631 µM; with `COc1cc(F)ccc1[C@H](C)NC(=O)C[C@@H]1CCCN1C` [Example 95, N-((S)-1-(4-fluoro-2-methoxyphenyl)ethyl)-2-((S)-1-methylpyrrolidin-2-yl)acetamide], 0.794 µM; with `CN1CCC(F)(F)C1CC(=O)NC(C)(C)c1nccc2ccccc12` (centres unmarked) [Example 97, 2-(3,3-difluoro-1-methylpyrrolidin-2-yl)-N-(2-(isoquinolin-1-yl)propan-2-yl)acetamide], 1 µM.
In the case of `Cc1cccc2c(C(C)(C)NC(=O)CC3N(C)CCC3(F)F)nccc12` (centres unmarked) [Example 98, 2-(3,3-difluoro-1-methylpyrrolidin-2-yl)-N-(2-(5-methylisoquinolin-1-yl)propan-2-yl)acetamide] it was 0.158 µM; in that of `CN1CCC(F)(F)C1CC(=O)NC(C)(C)c1nccc2occc12` (centres unmarked) [Example 99, 2-(3,3-difluoro-1-methylpyrrolidin-2-yl)-N-(2-(furo[3,2-c]pyridin-4-yl)propan-2-yl)acetamide], 3.98 µM.
Take `Cc1ccnc(OCC(C)(C)NC(=O)C[C@@H]2CCCN2C)c1` [Example 102, (S)-N-(2-methyl-1-((4-methylpyridin-2-yl)oxy)propan-2-yl)-2-(1-methylpyrrolidin-2-yl)acetamide]: the EC50 was 0.631 µM.
In the case of `Cc1ccc(OCC(C)(C)NC(=O)C[C@@H]2CCCN2C)nc1` [Example 103, (S)-N-(2-methyl-1-((5-methylpyridin-2-yl)oxy)propan-2-yl)-2-(1-methylpyrrolidin-2-yl)acetamide] it was 0.501 µM; in that of `CN1CCC[C@H]1CC(=O)NC(C)(C)COc1cc(Cl)c(F)cn1` [Example 105, (S)-N-(1-((4-chloro-5-fluoropyridin-2-yl)oxy)-2-methylpropan-2-yl)-2-(1-methylpyrrolidin-2-yl)acetamide], 0.794 µM.
As to `CN1CCC[C@@H]1CC(=O)NC(C)(C)COc1ncccc1OC(F)(F)F` [Example 106, (R)-N-(2-methyl-1-((3-(trifluoromethoxy)pyridin-2-yl)oxy)propan-2-yl)-2-(1-methylpyrrolidin-2-yl)acetamide], the EC50 is 0.02 µM.
In the case of `CCOc1cccnc1OCC(C)(C)NC(=O)C[C@H]1CCCN1C` [Example 107, (R)-N-(1-((3-ethoxypyridin-2-yl)oxy)-2-methylpropan-2-yl)-2-(1-methylpyrrolidin-2-yl)acetamide] it was 0.2 µM; in that of `CN1CCC[C@@H]1CC(=O)NC(C)(C)COc1ncccc1C1CC1` [Example 108, (R)-N-(1-((3-cyclopropylpyridin-2-yl)oxy)-2-methylpropan-2-yl)-2-(1-methylpyrrolidin-2-yl)acetamide], 0.02 µM; in that of `CCOc1cccnc1OCC(C)(C)NC(=O)C[C@@H]1CCCN1C` [Example 109, (S)-N-(1-((3-ethoxypyridin-2-yl)oxy)-2-methylpropan-2-yl)-2-(1-methylpyrrolidin-2-yl)acetamide], 0.631 µM.
In the case of `COc1c(Cl)cccc1C(C)(C)NC(=O)C[C@H]1CCCN1C` [Example 113, (R)-N-(2-(3-chloro-2-methoxyphenyl)propan-2-yl)-2-(1-methylpyrrolidin-2-yl)acetamide] it was 0.0794 µM; in that of `COc1c(F)cccc1C(C)(C)NC(=O)C[C@@H]1CCCN1C` [Example 114, (S)-N-(2-(3-fluoro-2-methoxyphenyl)propan-2-yl)-2-(1-methylpyrrolidin-2-yl)acetamide], 0.251 µM; in that of `COc1c(F)cccc1C(C)(C)NC(=O)C[C@H]1CCCN1C` [Example 115, (R)-N-(2-(3-fluoro-2-methoxyphenyl)propan-2-yl)-2-(1-methylpyrrolidin-2-yl)acetamide], 0.2 µM.

(Values after US20230150981A1, “N-HETEROARYLALKYL-2-(HETEROCYCLYL AND HETEROCYCLYLMETHYL) ACETAMIDE DERIVATIVES AS SSTR4 AGONISTS” (Takeda Pharmaceutical Compnay Limited, priority 2020, published 2023).)
